Assay results as given in US20120171123A1, “USES AND COMPOSITIONS FOR TREATMENT OF RHEUMATOID ARTHRITIS” (priority 2006, published 2012).

Tested on: MTX-naïve adult patients with active, early RA (<3 years)
Test: Study J: radiographic progression (TSS, joint erosion, joint space narrowing)
Type: in vivo, human
Design: key to mean change from baseline in TSS / Mean change in TSS / TSS after 2 years / change in TSS over 2 years / mean change in TSS from baseline / Mean ΔTSS at 1 year / Mean ΔTSS Yr 1-Yr 2: modified total Sharp score, 0-398 scale
Excerpt: The co-primary endpoints, comparing MTX alone with the combination at 1 year, were the ACR50 response (using non-responder imputation), and inhibition of radiographic progression, as measured by change in total Sharp score (TSS). In this study, the term “Major Clinical Response” (MCR) meant a continuous ACR70 response for 6 or more consecutive months.
At 1 and 2 years, the American College of Rheumatology (ACR) responses (ACR20, ACR50, and ACR70), the Disease Activity Score 28 (DAS28), and the change (Δ) in Total Sharp Score (TSS) were determined for all patients. Results were analyzed for the intention-to-treat (ITT) population using imputation for missing data. Clinical remission was defined as DAS28<2.6. The mean ΔTSS values at 1 year and 2 years (N=791) were determined for patients in each ACR response category (ACR20/50/70) and for patients with DAS28<2.6
Radiographic progression was measured by Total Sharp Score (TSS) at baseline, and 1 and 2 years in the intention to treat population (ITT) using imputation for missing data. In this analysis, patients were divided into 1 of 2 categories by disease duration at baseline: <6 months (Group 1) or 6 months to 3 years (Group 2). Mean changes in TSS were reported for both groups by each of the 3 treatment arms from baseline to Year 1 and from Year 1 to Year 2.
Radiographic progression was assessed by mean change from baseline in Total Sharp Score (TSS) and stratified into those with (ΔTSS>0.5) and without (Δ≦TSS 0.5). Patients were categorized as either having radiographic progression at 1 year (ΔTSS>0.5) or not (Δ≦TSS 0.5). A logistic regression model was used to identify predictors of radiographic disease progression by testing several baseline characteristics, including age, disease duration, RF status, TJC, SJC, joint erosions, and CRP. For analyses of CRP, patients were categorized as normal (CRP≦0.8 mg/dL) or abnormal (CRP>0.8 mg/dL).
Mean change from baseline in Total Sharp Score (TSS) was measured at 6 months, 1 year, and 2 years in the intention-to-treat (ITT) population using imputation for missing data. Patients were classified as having radiographic progression (mean change in TSS>0.5) or without radiographic progression (ΔTSS≦0.5). Patients with inadequate data were excluded from this analysis.
Patients in the Ada+MTX and the MTX arms were classified according to level of clinical response (non-responder (<ACR20), ACR20, ACR50, or ACR70) and radiographic progression (Yes or No (ΔTSS≦0.5)). The ΔTSS was analyzed overall, and for ACR subgroups. This included determination of mean ΔTSS and probability plots.
Study J was a 2-year, double-blind, active comparator-controlled, Phase III study. […] For each patient, radiographs of hands and feet were taken at baseline, 6 months, 1 year and 2 years and evaluated for joint erosions (JE) and joint space narrowing (JSN) by 2 blinded radiologists. Changes from baseline in the modified total Sharp score (TSS, 0-398) were calculated for patients in each treatment arm. Cumulative probability plots were generated by estimating the probability of exceeding a given change in TSS. For each treatment, we calculated the percentages of patients whose ΔTSS exceeded specified thresholds, and the probability of having a given ΔTSS (using cumulative probability plots). For each of 4 cumulative probability ranges, 0-10%, 10-50%, 50-90% and 90-100% (higher numbered ranges=greater ΔTSS), mean ΔTSS values were calculated. In previous reports, Study J radiographic analyses employed linear imputation. In the present analysis, only observed data were employed, with no imputation.

[1] = Group 1, BL disease duration <6 mos (n=448)
[2] = Group 2, BL disease duration 6 mos to 3 yrs (n=333)
[3] = disease duration 6 months to 3 years
[4] = disease duration 6 months-3 years (n=333)

CN(Cc1cnc2nc(N)nc(N)c2n1)c1ccc(C(=O)N[C@@H](CCC(=O)O)C(=O)O)cc1 [mtx alone, methotrexate]
Frequency of radiographic progression (ΔTSS > 0.5), % of patients (6 months, ACR20 responders, observed data): 55% | Mean change TSS in radiographic progressors (ΔTSS > 0.5) (6 months, ACR50 responders): 3.8 | Frequency of radiographic progression (ΔTSS > 0.5), % of patients (6 months, ACR50 responders, observed data): 51% | Mean change TSS in radiographic progressors (ΔTSS > 0.5) (6 months, ACR70 responders): 3.4 | Frequency of radiographic progression (ΔTSS > 0.5), % of patients (6 months, ACR70 responders, observed data): 49% | Mean change TSS in radiographic progressors (ΔTSS > 0.5) (6 months, Non-responder (<ACR20)): 10.8 | Frequency of radiographic progression (ΔTSS > 0.5), % of patients (6 months, Non-responder (<ACR20), observed data): 59% | Mean change in TSS (6 months, all points (0-100), observed data): 3.4 | Mean change in TSS (6 months, cumulative probability range 0-10): −2.0 | Mean change in TSS (6 months, cumulative probability range 10-50): 0.2 | Mean change in TSS (6 months, cumulative probability range 50-90): 4.4 | Mean change in TSS (6 months, cumulative probability range 90-100): 16.5 | Annualized rate of radiographic progression (ΔTSS) (6 mos-1 yr, all pts in treatment arm): 4.4 Sharp Score Units per Year | Mean change in TSS (26 weeks, observed data): 3.4 | Mean change in TSS (52 weeks, observed data): 5.2 | Mean change in TSS (104 weeks, observed data): 6.4 | Patients with No Radiographic Progression at 1 Year (CRP (BL and Year 1) Abnormal to Normal): 33% | Patients with No Radiographic Progression at 1 Year (CRP (BL and Year 1) Always Normal): 86% | Patients with No Radiographic Progression at 1 Year (CRP (BL and Year 1) Never Normal): 31% | Mean ΔTSS Yr 1-Yr 2 [1]: 5.8 | Mean ΔTSS at 1 year [1]: 7.4 | Mean ΔTSS Yr 1-Yr 2 [2]: 3.4 | Mean ΔTSS at 1 year [2]: 3.8 | No Progression at Month 6, % (Study J): 51% | No Progression at Month 6, patients/total (Study J): 129/252 | No Progression at Month 6 and Year 2, % (Study J): 61% | No Progression at Month 6 and Year 2, patients/Month-6 non-progressors (Study J): 79/129 | Yr-2 Non-P, % (among Mo-6 Non-Progressors): 61% | Yr-2 Non-P, number of patients (among Mo-6 Non-Progressors): 79 | Yr-2 Prog, % (among Mo-6 Non-Progressors): 39% | Yr-2 Prog, number of patients (among Mo-6 Non-Progressors): 50 | Yr-2 Non-P, % (among Mo-6 Progressors): 6% | Yr-2 Non-P, number of patients (among Mo-6 Progressors): 7 | Yr-2 Prog, % (among Mo-6 Progressors): 94% | Yr-2 Prog, number of patients (among Mo-6 Progressors): 116 | TSS after 2 years [3]: 32.2 | change in TSS over 2 years [3]: 7.2 | mean change TSS during year 1 [4]: 3.8 sharp score units | mean change TSS during year 2 [4]: 3.4 sharp score units | TSS after 2 years (disease duration <6 months): 32.4 | change in TSS over 2 years (disease duration <6 months): 13.2 | mean change TSS during year 1 (disease duration <6 months): 7.4 sharp score units | mean change TSS during year 2 (disease duration <6 months): 5.8 sharp score units | rate of change in TSS in ACR20 responders, relative to combination therapy (in vivo): 7 times | Mo-6 Non-Progressors, % of arm (no progression = ΔTSS≦0.5): 51% | Mo-6 Non-Progressors, number of patients (no progression = ΔTSS≦0.5): 129 | patients with no progression at year 2 (no progression at month 6): 61% | Mo-6 Progressors, % of arm (progression = ΔTSS>0.5): 49% | Mo-6 Progressors, number of patients (progression = ΔTSS>0.5): 123 | patients with no progression at year 2 (progression at month 6): 6% | mean change from baseline in TSS (week 26, ITT with imputation): 3.5 | mean change from baseline in TSS (week 52 (1 year), ITT with imputation): 5.7 | mean change from baseline in TSS (week 104 (2 years), ITT with imputation): 10.4
